Measured values as given in PubChem BioAssay (NCI).
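Results reflect a 48-hour exposure of cells in 96-well plates to compound at five concentrations. GI50 = concentration required for 50% inhibition of growth. TGI: concentration producing complete growth inhibition.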

Legend:
Test in all cases: NCI-60 cell line screen, 48 h
NCI/ADR-RES ovarian = system: NCI/ADR-RES ovarian
SF-268 CNS = system: SF-268 CNS
UACC-62 melanoma = system: UACC-62 melanoma
SK-MEL-2 melanoma = system: SK-MEL-2 melanoma
DU-145 prostate = system: DU-145 prostate
SW-620 colon = system: SW-620 colon
RPMI-8226 leukemia = system: RPMI-8226 leukemia
OVCAR-8 ovarian = system: OVCAR-8 ovarian
CAKI-1 renal = system: CAKI-1 renal
SK-MEL-28 melanoma = system: SK-MEL-28 melanoma
K-562 leukemia = system: K-562 leukemia
OVCAR-5 ovarian = system: OVCAR-5 ovarian
T-47D breast = system: T-47D breast
HCC-2998 colon = system: HCC-2998 colon
U251 CNS = system: U251 CNS
SF-295 CNS = system: SF-295 CNS
MOLT-4 leukemia = system: MOLT-4 leukemia
HCT-116 colon = system: HCT-116 colon
MALME-3M melanoma = system: MALME-3M melanoma
MDA-MB-435 = system: MDA-MB-435
NCI-H460 lung = system: NCI-H460 lung
OVCAR-3 ovarian = system: OVCAR-3 ovarian
HS 578T breast = system: HS 578T breast
LOX IMVI melanoma = system: LOX IMVI melanoma
RXF 393 renal = system: RXF 393 renal
CCRF-CEM leukemia = system: CCRF-CEM leukemia
HOP-62 NSCLC = system: HOP-62 NSCLC
OVCAR-4 ovarian = system: OVCAR-4 ovarian
SK-OV-3 ovarian = system: SK-OV-3 ovarian
ACHN renal = system: ACHN renal
SF-539 CNS = system: SF-539 CNS
SK-MEL-5 melanoma = system: SK-MEL-5 melanoma
SNB-19 CNS = system: SNB-19 CNS
HL-60(TB) leukemia = system: HL-60(TB) leukemia
SR leukemia = system: SR leukemia
HT29 colon = system: HT29 colon
HCT-15 colon = system: HCT-15 colon
A498 renal = system: A498 renal
EKVX NSCLC = system: EKVX NSCLC
TK-10 renal = system: TK-10 renal
SN12C renal = system: SN12C renal
PC-3 prostate = system: PC-3 prostate
UO-31 renal = system: UO-31 renal
UACC-257 melanoma = system: UACC-257 melanoma
COLO 205 colon = system: COLO 205 colon
HOP-92 NSCLC = system: HOP-92 NSCLC
KM12 colon = system: KM12 colon
A549 NSCLC = system: A549 NSCLC
NCI-H226 lung = system: NCI-H226 lung
NCI-H23 lung = system: NCI-H23 lung
MDA-MB-231 breast = system: MDA-MB-231 breast
BT-549 breast = system: BT-549 breast
MCF7 breast = system: MCF7 breast
SNB-75 CNS = system: SNB-75 CNS
786-0 renal = system: 786-0 renal
M14 melanoma = system: M14 melanoma
IGROV1 ovarian = system: IGROV1 ovarian
NCI-H522 lung = system: NCI-H522 lung

With C#C[C@@]1(O)[C@@H](CO)O[C@@H](n2cc(C(F)(F)F)c3c(N)ncnc32)[C@@H]1O the GI50 (NCI/ADR-RES ovarian) was 0.487 µM, the TGI (NCI/ADR-RES ovarian) was > 24.7 µM and the GI50 (SF-268 CNS) was 1.55 µM. The TGI (SF-268 CNS) was > 22.9 µM, the GI50 (UACC-62 melanoma) was 0.707 µM and the TGI (UACC-62 melanoma) was 2.63 µM. It also gave a GI50 (SK-MEL-2 melanoma) of 0.913 µM, a TGI (SK-MEL-2 melanoma) of 2.85 µM and a GI50 (DU-145 prostate) of 0.433 µM. The TGI (DU-145 prostate) was > 100 µM, the GI50 (SW-620 colon) was 0.349 µM and the TGI (SW-620 colon) was > 21.7 µM. It also gave a GI50 (RPMI-8226 leukemia) of 0.886 µM, a TGI (RPMI-8226 leukemia) of 4.56 µM and a GI50 (OVCAR-8 ovarian) of 0.243 µM. For the same compound, the TGI (OVCAR-8 ovarian) was > 100 µM, the GI50 (CAKI-1 renal) was 2.19 µM and the TGI (CAKI-1 renal) was > 100 µM. It also gave a GI50 (SK-MEL-28 melanoma) of 1.83 µM, a TGI (SK-MEL-28 melanoma) of 10 µM and a GI50 (K-562 leukemia) of 0.291 µM. The TGI (K-562 leukemia) was 0.909 µM, the GI50 (OVCAR-5 ovarian) was 1.59 µM and the TGI (OVCAR-5 ovarian) was 7.06 µM. For the same compound, the GI50 (T-47D breast) was 0.0639 µM, the TGI (T-47D breast) was 3.77 µM and the GI50 (HCC-2998 colon) was 0.423 µM. It also gave a TGI (HCC-2998 colon) of 4.24 µM, a GI50 (U251 CNS) of 0.409 µM and a GI50 (SF-295 CNS) of 2.18 µM. For the same compound, the TGI (SF-295 CNS) was 8.09 µM, the GI50 (MOLT-4 leukemia) was 0.29 µM and the TGI (MOLT-4 leukemia) was 1.33 µM. For the same compound, the GI50 (HCT-116 colon) was 0.363 µM, the TGI (HCT-116 colon) was > 100 µM and the GI50 (MALME-3M melanoma) was 1.19 µM. The TGI (MALME-3M melanoma) was 4.84 µM, the GI50 (MDA-MB-435) was 0.808 µM and the TGI (MDA-MB-435) was 11.3 µM. It also gave a GI50 (NCI-H460 lung) of 0.536 µM, a TGI (NCI-H460 lung) of 10.6 µM and a GI50 (OVCAR-3 ovarian) of 0.727 µM. It also gave a TGI (OVCAR-3 ovarian) of 4.89 µM, a GI50 (HS 578T breast) of 1.26 µM and a TGI (HS 578T breast) of 6.23 µM. The GI50 (LOX IMVI melanoma) was 0.288 µM, the TGI (LOX IMVI melanoma) was 2.98 µM and the GI50 (RXF 393 renal) was 0.841 µM. The TGI (RXF 393 renal) was 2.74 µM, the GI50 (CCRF-CEM leukemia) was 0.487 µM and the TGI (CCRF-CEM leukemia) was > 37.2 µM. The GI50 (HOP-62 NSCLC) was 1.75 µM, the TGI (HOP-62 NSCLC) was > 100 µM and the GI50 (OVCAR-4 ovarian) was 2.41 µM. For the same compound, the TGI (OVCAR-4 ovarian) was > 100 µM, the GI50 (SK-OV-3 ovarian) was 0.214 µM and the TGI (SK-OV-3 ovarian) was > 100 µM. The GI50 (ACHN renal) was 0.831 µM, the TGI (ACHN renal) was > 100 µM and the GI50 (SF-539 CNS) was 0.86 µM. The TGI (SF-539 CNS) was 2.71 µM, the GI50 (SK-MEL-5 melanoma) was 0.688 µM and the TGI (SK-MEL-5 melanoma) was 4.38 µM. The GI50 (SNB-19 CNS) was 1.53 µM, the TGI (SNB-19 CNS) was > 100 µM and the GI50 (HL-60(TB) leukemia) was 0.278 µM. The TGI (HL-60(TB) leukemia) was 0.984 µM, the GI50 (SR leukemia) was 0.306 µM and the TGI (SR leukemia) was 1.7 µM. The GI50 (HT29 colon) was 0.207 µM, the TGI (HT29 colon) was 8.3 µM and the GI50 (HCT-15 colon) was 0.679 µM. The TGI (HCT-15 colon) was > 25.5 µM, the GI50 (A498 renal) was 0.168 µM and the TGI (A498 renal) was 0.533 µM. For the same compound, the GI50 (EKVX NSCLC) was 1.62 µM, the TGI (EKVX NSCLC) was > 25.9 µM and the GI50 (TK-10 renal) was 0.966 µM. For the same compound, the TGI (TK-10 renal) was > 28.2 µM, the GI50 (SN12C renal) was 0.658 µM and the TGI (SN12C renal) was > 100 µM. For the same compound, the GI50 (PC-3 prostate) was 0.427 µM, the TGI (PC-3 prostate) was > 21.1 µM and the GI50 (UO-31 renal) was 0.311 µM. The TGI (UO-31 renal) was 3.16 µM, the GI50 (UACC-257 melanoma) was 0.6 µM and the GI50 (COLO 205 colon) was 0.255 µM. It also gave a TGI (COLO 205 colon) of 1.27 µM, a GI50 (HOP-92 NSCLC) of 1.24 µM and a TGI (HOP-92 NSCLC) of 7.46 µM. The GI50 (KM12 colon) was 0.365 µM, the TGI (KM12 colon) was > 30.4 µM and the GI50 (A549 NSCLC) was 0.871 µM. For the same compound, the TGI (A549 NSCLC) was > 19.7 µM, the GI50 (NCI-H226 lung) was 2.7 µM and the TGI (NCI-H226 lung) was > 100 µM. For the same compound, the GI50 (NCI-H23 lung) was 0.651 µM, the TGI (NCI-H23 lung) was 8.19 µM and the GI50 (MDA-MB-231 breast) was 0.736 µM. The TGI (MDA-MB-231 breast) was > 100 µM, the GI50 (BT-549 breast) was 0.962 µM and the TGI (BT-549 breast) was 4.69 µM. The GI50 (MCF7 breast) was 0.0711 µM, the GI50 (SNB-75 CNS) was 1.12 µM and the TGI (SNB-75 CNS) was 3.42 µM. For the same compound, the GI50 (786-0 renal) was 2.07 µM, the TGI (786-0 renal) was > 100 µM and the GI50 (M14 melanoma) was 0.724 µM. The TGI (M14 melanoma) was 3.56 µM, the GI50 (IGROV1 ovarian) was 0.103 µM and the TGI (IGROV1 ovarian) was > 100 µM. The GI50 (NCI-H522 lung) was 0.345 µM and the TGI (NCI-H522 lung) was 1.98 µM.
